According to US10351594B2, “Process for preparing compounds having triple activities of thrombolysis, antithrombosis, and radical scavenging” (Shanghai Lumosa Therapeutics Co., Ltd., priority 2013, dated 2019):
“Also recorded” adds a separate entry of the source. Marks after values point to notes of the source that are not given here.

Assays:
[1] = system: formation of thrombus (rat arteriovenous bypass); assay: Antithrombotic activity via intravenous administration, rat arteriovenous bypass cannula with thread; format: in vivo, male SD rats; conditions: for wet weight of thrombus: n = 10
Source text: A cannula was composed of 3 segments. The middle segment has a length of 80 mm and an inner diameter of 3.5 mm. […] The pre-weighed, 60 mm in length thread was placed in the middle segment of the polyethylene tube. Both ends of the wider tube sheathed the un-narrowed ends of two polyethylene tubes respectively (0.5 mm of the thread was restrained by one of the segment to fix the thread). The cannula was filled with a heparin solution in normal saline (50 IU/kg) through the tip end by using an injector and was ready for use. 200-220 g male SD rats were anesthetized with 20% urethane solution (6 mL/kg, ip). Anesthetized rats were fixed in a supine position, and the left external jugular vein was separated and penetrated with a suture at the proximal and distal ends respectively, and the distal end was ligated. An incision was carefully made on the exposed left external jugular vein, and the tip end without thread-restraining of the bypass cannula prepared as described above was inserted into the proximal end of the open incision in the left external jugular vein. A precise amount of heparin in normal saline (50 IU/kg) was injected through the tip at the other end by using an injector. Then, the injector was replaced, and precise amount of drug was injected by the same way. At this moment, without removing the injector from the ethylene tube, the right common carotid artery was separated, and the proximal end was clipped by an artery clip. The right common carotid artery was penetrated with a suture at the proximal and distal ends respectively, and the distal end was ligated. An incision was carefully cut across the right common carotid artery near the artery clip. The injector was pulled out of the polyethylene tube through the tip, and the tip of the polyethylene tube was then inserted into the proximal end of the artery incision. Both ends of the bypass cannula were fixed to the artery or vein with #4 sutures. The artery clip was then removed to allow blood to flow from the artery to the vein through the bypass cannula. A rat arteriovenous bypass thrombolysis model was thus established. The process was timed from the beginning of circulation, the thread attached with thrombus was taken out from the bypass cannula after 15 minutes and accurately weighed. The difference in the mass of the thread before and after was determined as the wet weight of the thrombus, which was statistically analyzed and used to evaluate the in vivo antithrombotic activities of the compounds. The wet weight of the thrombus was expressed as average value and standard deviation (x±SD). The drug administration method is intravenous injection. The blank control was normal saline solution, and the dose was 1 mL/kg. The positive control was aspirin, and the dose was 9 mg/kg. The dose of compounds 5Aa-p of the present invention was 0.1 nmol/kg. The method was the same as in example 3. The drug administration method is intravenous injection. The blank control was normal saline solution, and the dose was 3 mL/kg. The positive control was aspirin, and the dose was 9 mg/kg.

[2] = NO radical scavenging activity (MGD/SNAP signal peak height); format: biochemical; conditions: n = 6
Method: 7.325 mg MGD (N-methyl-glucamine dithiocarbamate, Sigma) was dissolved in 1 mL of pure water to obtain 25 mM MGD solution. […] FeSO4.7H2O was dissolved in 1 mL of pure water to obtain 12.5 mM solution. […] SNAP (S-Nitroso-acetyl penicillamine) was dissolved in 1 mL of pure water to obtain 110 μM green mother liquid, which was diluted 100 folds to obtain 1 μM SNAP solution.
The first peak height of NO signal of 5 μL MGD solution+5 μL FeSO4.7H2O solution+5 μL SNAP solution+5 μL water was measured and repeated for 6 times. This peak height defined as the known peak height of NO signal. The first peak height of NO signal of 5 μL MGD solution+5 μL FeSO4.7H2O solution+5 μL SNAP solution+5 μL solution of one of the compounds 5Aa-p was measured and repeated for 6 times. This peak height defined as the residual peak height of the NO signal scavenged by one of the compounds 5Aa-p. Scavenging ratio=(known peak height of NO signal−residual peak height of NO signal of compounds 5Aa-p)/known peak height of NO signal

[3] = system: formation of thrombus (rat arteriovenous bypass); assay: Antithrombotic activity via intravenous administration, rat arteriovenous bypass cannula with thread; format: in vivo, male SD rats; conditions: n = 10
[4] = rat, 5Aa-p (i.v.) 0.1 nmol/kg, 15 minutes

C[C@H](NC(=O)[C@@H]1CCCN1)C(=O)N[C@H](C(=O)NCCCC[C@H](NC(=O)[C@@H]1Cc2cc(O)c(O)cc2C(C)(C)N1)C(=O)O)[C@@H](C)O [Compound 5Aj, 3S-6,7-dihydroxy-1,1-dimethyl-1,2,3,4-tetrahydro-isoquinoline-3-acyl-Lys(Pro-Ala-Thr)]
wet weight of thrombus [1, 4]: 50.56 ± 3.96^a mg | EC50 [2]: 510 ± 75 µM

C[C@H](NC(=O)[C@@H]1CCCN1)C(=O)N[C@@H](Cc1c[nH]c2ccccc12)C(=O)NCCCC[C@H](NC(=O)[C@@H]1Cc2cc(O)c(O)cc2C(C)(C)N1)C(=O)O [Compound 5Ac, 3S-6,7-dihydroxy-1,1-dimethyl-1,2,3,4-tetrahydro-isoquinoline-3-acyl-Lys(Pro-Ala-Trp)]
wet weight of thrombus [1, 4]: 52.93 ± 3.96^a mg | EC50 [2]: 463 ± 92 µM

3S-6,7-dihydroxy-1,1-dimethyl-1,2,3,4-tetrahydro-isoquinoline-3-acyl-Lys(Pro-Ala-Gly) [Compound 5Ag]
wet weight of thrombus [1, 4]: 54.28 ± 3.57^a mg | EC50 [2]: 609 ± 95 µM

C[C@H](NC(=O)[C@@H]1CCCN1)C(=O)N[C@@H](CCC(=O)O)C(=O)NCCCC[C@H](NC(=O)[C@@H]1Cc2cc(O)c(O)cc2C(C)(C)N1)C(=O)O [Compound 5Ap, 3S-6,7-dihydroxy-1,1-dimethyl-1,2,3,4-tetrahydro-isoquinoline-3-acyl-Lys(Pro-Ala-Glu)]
wet weight of thrombus [1, 4]: 49.97 ± 6.32^a mg | EC50 [2]: 477 ± 91 µM

C[C@H](NC(=O)[C@@H]1CCCN1)C(=O)N[C@@H](CCCCN)C(=O)NCCCC[C@H](NC(=O)[C@@H]1Cc2cc(O)c(O)cc2C(C)(C)N1)C(=O)O [Compound 5Ak, 3S-6,7-dihydroxy-1,1-dimethyl-1,2,3,4-tetrahydro-isoquinoline-3-acyl-Lys(Pro-Ala-Lys)]
wet weight of thrombus ([1]; Table 4, 5Ak 0.1 nmol/kg i.v.): 52.16 ± 2.02^a mg | wet weight of thrombus [1, 4]: 51.93 ± 2.74^a mg | Antithrombotic activity, result in words ([1]; rat, intravenous, 5Ak 0.1 nmol/kg (dose-effect: 0.1, 0.01, 0.001 nmol/kg)): effectively inhibit the formation of thrombus; also recorded: obvious dose-effect relationship | wet weight of thrombus ([3]; Table 4, 5Ak 0.001 nmol/kg i.v.): 61.91 ± 3.27^c mg | wet weight of thrombus ([3]; Table 4, 5Ak 0.01 nmol/kg i.v.): 57.34 ± 3.73^b mg | EC50 [2]: 499 ± 89 µM

CC[C@H](C)[C@H](NC(=O)[C@H](C)NC(=O)[C@@H]1CCCN1)C(=O)NCCCC[C@H](NC(=O)[C@@H]1Cc2cc(O)c(O)cc2C(C)(C)N1)C(=O)O [Compound 5Ai, 3S-6,7-dihydroxy-1,1-dimethyl-1,2,3,4-tetrahydro-isoquinoline-3-acyl-Lys(Pro-Ala-Ile)]
wet weight of thrombus [1, 4]: 56.12 ± 5.55^a mg | EC50 [2]: 527 ± 90 µM

C[C@H](NC(=O)[C@@H]1CCCN1)C(=O)N[C@@H](CC(=O)O)C(=O)NCCCC[C@H](NC(=O)[C@@H]1Cc2cc(O)c(O)cc2C(C)(C)N1)C(=O)O [Compound 5Ao, 3S-6,7-dihydroxy-1,1-dimethyl-1,2,3,4-tetrahydro-isoquinoline-3-acyl-Lys(Pro-Ala-Asp)]
wet weight of thrombus [1, 4]: 48.34 ± 3.29^a mg | EC50 [2]: 473 ± 99 µM

C[C@H](NC(=O)[C@@H]1CCCN1)C(=O)N[C@@H](CC(N)=O)C(=O)NCCCC[C@H](NC(=O)[C@@H]1Cc2cc(O)c(O)cc2C(C)(C)N1)C(=O)O [Compound 5An, 3S-6,7-dihydroxy-1,1-dimethyl-1,2,3,4-tetrahydro-isoquinoline-3-acyl-Lys(Pro-Ala-Asn)]
wet weight of thrombus [1, 4]: 55.11 ± 4.76^a mg | EC50 [2]: 659 ± 89 µM

3S-6,7-dihydroxy-1,1-dimethyl-1,2,3,4-tetrahydro-isoquinoline-3-acyl-Lys(Pro-Ala-Val) [Compound 5Ab]
wet weight of thrombus [1, 4]: 54.17 ± 6.61^a mg | EC50 [2]: 532 ± 73 µM

C[C@H](NC(=O)[C@@H]1CCCN1)C(=O)N[C@@H](CO)C(=O)NCCCC[C@H](NC(=O)[C@@H]1Cc2cc(O)c(O)cc2C(C)(C)N1)C(=O)O [Compound 5Ah, 3S-6,7-dihydroxy-1,1-dimethyl-1,2,3,4-tetrahydro-isoquinoline-3-acyl-Lys(Pro-Ala-Ser)]
wet weight of thrombus [1, 4]: 50.67 ± 3.71^a mg | EC50 [2]: 523 ± 85 µM

3S-6,7-dihydroxy-1,1-dimethyl-1,2,3,4-tetrahydro-isoquinoline-3-acyl-Lys(Pro-Ala-Ala) [Compound 5Aa]
wet weight of thrombus [1, 4]: 54.04 ± 6.43^a mg | EC50 [2]: 599 ± 38 µM

C[C@H](NC(=O)[C@@H]1CCCN1)C(=O)N[C@@H](CCC(N)=O)C(=O)NCCCC[C@H](NC(=O)[C@@H]1Cc2cc(O)c(O)cc2C(C)(C)N1)C(=O)O [Compound 5Am, 3S-6,7-dihydroxy-1,1-dimethyl-1,2,3,4-tetrahydro-isoquinoline-3-acyl-Lys(Pro-Ala-Gln)]
wet weight of thrombus [1, 4]: 58.14 ± 2.30^a mg | EC50 [2]: 647 ± 88 µM

C[C@H](NC(=O)[C@@H]1CCCN1)C(=O)N[C@@H](Cc1ccc(O)cc1)C(=O)NCCCC[C@H](NC(=O)[C@@H]1Cc2cc(O)c(O)cc2C(C)(C)N1)C(=O)O [Compound 5Ad, 3S-6,7-dihydroxy-1,1-dimethyl-1,2,3,4-tetrahydro-isoquinoline-3-acyl-Lys(Pro-Ala-Tyr)]
wet weight of thrombus [1, 4]: 51.91 ± 4.97^a mg | EC50 [2]: 453 ± 41 µM

C[C@H](NC(=O)[C@@H]1CCCN1)C(=O)N[C@@H](Cc1ccccc1)C(=O)NCCCC[C@H](NC(=O)[C@@H]1Cc2cc(O)c(O)cc2C(C)(C)N1)C(=O)O [Compound 5Af, 3S-6,7-dihydroxy-1,1-dimethyl-1,2,3,4-tetrahydro-isoquinoline-3-acyl-Lys(Pro-Ala-Phe)]
wet weight of thrombus [1, 4]: 54.01 ± 4.25^a mg | EC50 [2]: 568 ± 95 µM

CC(C)C[C@H](NC(=O)[C@H](C)NC(=O)[C@@H]1CCCN1)C(=O)NCCCC[C@H](NC(=O)[C@@H]1Cc2cc(O)c(O)cc2C(C)(C)N1)C(=O)O [Compound 5Al, 3S-6,7-dihydroxy-1,1-dimethyl-1,2,3,4-tetrahydro-isoquinoline-3-acyl-Lys(Pro-Ala-Leu)]
wet weight of thrombus [1, 4]: 54.20 ± 3.93^a mg | EC50 [2]: 503 ± 41 µM

C[C@H](NC(=O)[C@@H]1CCCN1)C(=O)N1CCC[C@H]1C(=O)NCCCC[C@H](NC(=O)[C@@H]1Cc2cc(O)c(O)cc2C(C)(C)N1)C(=O)O [Compound 5Ae, 3S-6,7-dihydroxy-1,1-dimethyl-1,2,3,4-tetrahydro-isoquinoline-3-acyl-Lys(Pro-Ala-Pro)]
wet weight of thrombus [1, 4]: 57.20 ± 6.43^a mg | EC50 [2]: 617 ± 88 µM
